Reference: the NIST ThermoML archive (doi:10.1016/j.jct.2015.10.006)

Conditions: Liquid, Frequency=8 MHz, Pulse-echo method

CCCCO [butan-1-ol]
Conditions | speed of sound [m/s]
253.15 K, 108 kPa | 1399.2
253.15 K, 5065 kPa | 1423.1
253.15 K, 10086 kPa | 1446.2
253.15 K, 15035 kPa | 1468.3
253.15 K, 20115 kPa | 1490.2
253.15 K, 25062 kPa | 1510.8
253.15 K, 30526 kPa | 1532.7
273.15 K, 103 kPa | 1326.1
273.15 K, 5008 kPa | 1351.9
273.15 K, 10094 kPa | 1377.2
273.15 K, 15185 kPa | 1401.4
273.15 K, 20115 kPa | 1424.1
273.15 K, 25088 kPa | 1446.1
273.15 K, 30170 kPa | 1467.9
293.15 K, 104 kPa | 1256.4
293.15 K, 5067 kPa | 1284.6
293.15 K, 10144 kPa | 1311.7
293.15 K, 15081 kPa | 1336.9
293.15 K, 20094 kPa | 1361.5
293.15 K, 25087 kPa | 1385
293.15 K, 30176 kPa | 1408.1
313.15 K, 100 kPa | 1189.2
313.15 K, 5050 kPa | 1219.2
313.15 K, 10082 kPa | 1248.2
313.15 K, 15167 kPa | 1276
313.15 K, 20187 kPa | 1302.2
313.15 K, 25473 kPa | 1328.5
313.15 K, 30162 kPa | 1351
333.15 K, 99 kPa | 1122.9
333.15 K, 5055 kPa | 1155.5
333.15 K, 10099 kPa | 1186.8
333.15 K, 15058 kPa | 1215.8
333.15 K, 20149 kPa | 1244.2
333.15 K, 25167 kPa | 1270.8
333.15 K, 30276 kPa | 1296.8
353.15 K, 100 kPa | 1056.4
353.15 K, 5013 kPa | 1091.6
353.15 K, 10032 kPa | 1125.3
353.15 K, 15066 kPa | 1157.1
353.15 K, 20085 kPa | 1187
353.15 K, 25075 kPa | 1215.1
353.15 K, 30204 kPa | 1242.7

CCO [ethanol]
Conditions | speed of sound [m/s]
253.15 K, 101 kPa | 1304.8
253.15 K, 4988 kPa | 1329.9
253.15 K, 10126 kPa | 1355.1
253.15 K, 15056 kPa | 1378.4
253.15 K, 19988 kPa | 1400.8
253.15 K, 25051 kPa | 1423
253.15 K, 30366 kPa | 1445.5
273.15 K, 101 kPa | 1230.4
273.15 K, 5095 kPa | 1258.5
273.15 K, 10288 kPa | 1286.1
273.15 K, 15102 kPa | 1310.6
273.15 K, 19986 kPa | 1334.4
273.15 K, 25007 kPa | 1357.9
273.15 K, 30061 kPa | 1380.6
293.15 K, 101 kPa | 1159.8
293.15 K, 5052 kPa | 1190
293.15 K, 9984 kPa | 1218.5
293.15 K, 15097 kPa | 1246.4
293.15 K, 20038 kPa | 1272.2
293.15 K, 25073 kPa | 1297.3
293.15 K, 30034 kPa | 1321
313.15 K, 101 kPa | 1091.6
313.15 K, 5015 kPa | 1124.4
313.15 K, 10081 kPa | 1156
313.15 K, 15057 kPa | 1185.3
313.15 K, 20137 kPa | 1213.6
313.15 K, 25255 kPa | 1240.7
313.15 K, 30161 kPa | 1265.5
333.15 K, 101 kPa | 1024.9
333.15 K, 5287 kPa | 1062.5
333.15 K, 10309 kPa | 1096.4
333.15 K, 15132 kPa | 1126.9
333.15 K, 20140 kPa | 1156.7
333.15 K, 25071 kPa | 1184.6
333.15 K, 30117 kPa | 1211.7
353.15 K, 110 kPa | 957.67
353.15 K, 5428 kPa | 1000.1
353.15 K, 10327 kPa | 1036.1
353.15 K, 15492 kPa | 1071.3
353.15 K, 20337 kPa | 1102.3
353.15 K, 25296 kPa | 1132.1
353.15 K, 29944 kPa | 1158.6
